Test results: US4910225A, “Locally administrable therapeutic composition for inflammatory disease” (Senju Pharmaceutical Co., Ltd., priority 1988, dated 1990)

Legend:
[1] = pH and osmolarity of ophthalmic solutions; format: physicochemical
[2] = tested on: experimental ophthalmitis induced by bovine serum albumin in white rabbits (ophthalmitis I); test: Anti-inflammatory effect in ophthalmitis I (bovine serum albumin injected into the vitreous), gross severity scores; format: in vivo; details: for Anterior chamber opacity, degree of inhibition relative to physiological saline group / Balbar conjunctival injection, degree of inhibition relative to physiological saline group / Corneal opacity, degree of inhibition relative to physiological saline group / Discharge, degree of inhibition relative to physiological saline group / External + Internal Grand Total Score, degree of inhibition relative to physiological saline group / External Segment Total Score, degree of inhibition relative to physiological saline group / Internal Segment Total Score, degree of inhibition relative to physiological saline group / Iridic injection, degree of inhibition relative to physiological saline group / Morphological change of iris, degree of inhibition relative to physiological saline group / Palpebral conjunctival edema, degree of inhibition relative to physiological saline group / Palpebral conjunctival injection, degree of inhibition relative to physiological saline group / Anterior chamber opacity score (Internal Segment) / Balbar conjunctival injection score (External Segment) / Corneal opacity score (External Segment) / Discharge score (External Segment) / External + Internal Grand Total Score / External Segment Total Score / Internal Segment Total Score / Iridic injection score (Internal Segment) / Morphological change of iris score (Internal Segment) / Palpebral conjunctival edema score (External Segment) / Palpebral conjunctival injection score (External Segment): ophthalmitis I; for Anterior chamber opacity score (Internal Segment) / Balbar conjunctival injection score (External Segment) / Corneal opacity score (External Segment) / Discharge score (External Segment) / External + Internal Grand Total Score / External Segment Total Score / Internal Segment Total Score / Iridic injection score (Internal Segment) / Morphological change of iris score (Internal Segment) / Palpebral conjunctival edema score (External Segment) / Palpebral conjunctival injection score (External Segment): peak inflammatory period of 3 days, mean ± SE
Method: Seventeen male white rabbits weighing about 2 kg were used. They were fed with 80 g of Labo RG-RO (Nippon Agricultural Co., Ltd.) daily and had free access to tap water.
After 28 days when ophthalmitis I had nearly recovered, 2.5% BSA solution was administered in a dose of 25 mg/ml/kg into the auricular vein to cause ophthalmitis (ophthalmitis II). The severity of ophthalmitis was rated according to the rating scale^(1) of Yamauchi et al., based on the Draize method in which an increased weight given to the internal segment of the eye. Observation was made with a frequency of once in one or two days during the peak period of inflammation and once in three or four days before and after the peak period for ophthalmitis I and 3, 6, 12 and 24 hours after intravenous injection of BSA for ophthalmitis II.
^(1) Hideyasu Yamauchi, Makoto Ingu, Tadashi Iso and Kozo Uda: Anti-inflammatory effect of fluorometholone ophthalmic solution in experimental uveitis in rabbits, Folia Ophthalmologica Japonica, 24: 969-79 (1973).
Gross observation was made on the day after injection of BSA into the vitreous body and with the animals arranged in the decreasing order of severity of ocular inflammation, grouping was carried out in such a manner that the intensity distribution would be uniform over the groups. Thus, a physiological saline group of 7 animals, a 0.1% Compound [I] instillation group of 4 animals and a 0.5% Compound [I] instillation group of 5 animals were provided. After this grouping procedure, the test drugs and saline were respectively instilled into both eyes of the rabbits, 50 μl per dose, 4 times a day. For induction of ophthalmitis II, each drug was instilled into both eyes, 50 μl per dose, immediately after injection of BSA into the auricular vein and at 1-hour intervals thereafter, for a total of 14 times.

Nc1c(CC(=O)[O-])cccc1C(=O)c1ccc(Br)cc1.O.[Na+] [Compound [I], Sodium 3-(4-bromobenzoyl)-2-aminophenylacetate monohydrate]
Osmolarity of ophthalmic solution ([1]; 0.1% ophthalmic solution): 325 mOsm/kg·H2 O
pH value of ophthalmic solutions ([1]; 0.5% and 0.1% ophthalmic solutions): 8.11
Osmolarity of ophthalmic solution ([1]; 0.5% ophthalmic solution): 310 mOsm/kg·H2 O
Osmotic pressure ([1]; Experimental Example 3 solutions 0.1-0.0001%, pH 8.0): 310 mOsm/Kg.H2 O
Inhibition of ophthalmitis I for the external and the internal segment of the eye ([2]; 0.1% and 0.5%): potent and dose-dependent inhibition for both the external and the internal segment of the eye
Anterior chamber opacity, degree of inhibition relative to physiological saline group ([2]; 0.1%): -20.0%
Balbar conjunctival injection, degree of inhibition relative to physiological saline group ([2]; 0.1%): 30.8%
Corneal opacity, degree of inhibition relative to physiological saline group ([2]; 0.1%): 60.0%
Discharge, degree of inhibition relative to physiological saline group ([2]; 0.1%): 100%
External + Internal Grand Total Score, degree of inhibition relative to physiological saline group ([2]; 0.1%): 41.8%
External Segment Total Score, degree of inhibition relative to physiological saline group ([2]; 0.1%): 50.4%
Internal Segment Total Score, degree of inhibition relative to physiological saline group ([2]; 0.1%): 32.6%
Iridic injection, degree of inhibition relative to physiological saline group ([2]; 0.1%): 57.4%
Morphological change of iris, degree of inhibition relative to physiological saline group ([2]; 0.1%): 34.1%
Palpebral conjunctival edema, degree of inhibition relative to physiological saline group ([2]; 0.1%): 85.7%
Palpebral conjunctival injection, degree of inhibition relative to physiological saline group ([2]; 0.1%): 65.8%
Anterior chamber opacity score (Internal Segment) ([2]; 0.1%): 3.6 ± 0.8
Balbar conjunctival injection score (External Segment) ([2]; 0.1%): 4.5 ± 0.6
Corneal opacity score (External Segment) ([2]; 0.1%): 1.0 ± 0.4
Discharge score (External Segment) ([2]; 0.1%): 0
External + Internal Grand Total Score ([2]; 0.1%): 15.9 ± 1.8
External Segment Total Score ([2]; 0.1%): 6.8 ± 1.0
Internal Segment Total Score ([2]; 0.1%): 9.1 ± 1.0
Iridic injection score (Internal Segment) ([2]; 0.1%): 2.6 ± 0.2
Morphological change of iris score (Internal Segment) ([2]; 0.1%): 2.9 ± 0.4
Palpebral conjunctival edema score (External Segment) ([2]; 0.1%): 0.1 ± 0.1
Palpebral conjunctival injection score (External Segment) ([2]; 0.1%): 1.3 ± 0.2
Anterior chamber opacity, degree of inhibition relative to physiological saline group ([2]; 0.5%): 33.3%
Balbar conjunctival injection, degree of inhibition relative to physiological saline group ([2]; 0.5%): 74.5%
Corneal opacity, degree of inhibition relative to physiological saline group ([2]; 0.5%): 48.0%
Discharge, degree of inhibition relative to physiological saline group ([2]; 0.5%): 100%
External + Internal Grand Total Score, degree of inhibition relative to physiological saline group ([2]; 0.5%): 63.0%
External Segment Total Score, degree of inhibition relative to physiological saline group ([2]; 0.5%): 74.5%
Internal Segment Total Score, degree of inhibition relative to physiological saline group ([2]; 0.5%): 51.1%
Iridic injection, degree of inhibition relative to physiological saline group ([2]; 0.5%): 70.5%
Morphological change of iris, degree of inhibition relative to physiological saline group ([2]; 0.5%): 34.1%
Palpebral conjunctival edema, degree of inhibition relative to physiological saline group ([2]; 0.5%): 100%
Palpebral conjunctival injection, degree of inhibition relative to physiological saline group ([2]; 0.5%): 36.8%
Anterior chamber opacity score (Internal Segment) ([2]; 0.5%): 2.0 ± 0.4
Balbar conjunctival injection score (External Segment) ([2]; 0.5%): 1.6 ± 0.2
Corneal opacity score (External Segment) ([2]; 0.5%): 0.4 ± 0.2
Discharge score (External Segment) ([2]; 0.5%): 0
External + Internal Grand Total Score ([2]; 0.5%): 10.1 ± 1.0
External Segment Total Score ([2]; 0.5%): 3.5 ± 0.4
Internal Segment Total Score ([2]; 0.5%): 6.6 ± 0.8
Iridic injection score (Internal Segment) ([2]; 0.5%): 1.8 ± 0.2
Morphological change of iris score (Internal Segment) ([2]; 0.5%): 2.9 ± 0.4
Palpebral conjunctival edema score (External Segment) ([2]; 0.5%): 0
Palpebral conjunctival injection score (External Segment) ([2]; 0.5%): 1.5 ± 0.3
